Data from a melting point compilation (Tetko et al.; mined from patent text by program, amines drawn as free bases though some values may be those of a salt).

SMILES | melting point [°C]
Cc1cc(CSCCC(=C(N)NCCc2cccc(O)c2)[N+](=O)[O-])sc1CN(C)C | 114 to 115
CC(C)(CO)NC(=O)c1cc(F)c(F)cc1F | 114 to 116
CCOC(=O)Nc1nc2c(c3c(CCNS(C)(=O)=O)n(C)nc13)CCCC2 | 214 to 215
NCC(O)CSc1ccccc1 (configuration not stated) | 57 to 61
CCOC(=O)COc1cc(F)ccc1[N+](=O)[O-] | 37 to 39
O=C1c2c(Cl)cccc2-n2cnc(-c3nc(CN(CC4CC4)CC4CC4)no3)c2[C@@H]2CCN12 | 155 to 160
Cc1cccc([C@@H]2C[C@H]3C=C(c4c[nH]c(-c5ccc(F)cc5)c4-c4ccncc4)CCN3C2)c1 | 204 to 206
CNC1CCc2[nH]c3cccc(C)c3c2C1 (configuration not stated) | 163 to 166
CN1C(=O)c2ccccc2CC1C(=O)NC(Cc1c[nH]cn1)C(=O)N1CCCC1C(N)=O (configuration not stated) | 140 to 145
CCCCN=C(N)Nc1nc(C)cc(C)n1 | 185
COC1=C(OC)C(=O)C(CCCCCCCCCC(=O)N[C@H](CCC(=O)OCc2ccccc2)C(N)=O)=C(C)C1=O | 83 to 85
FC(F)(F)CNC(=S)NCc1ccc(C(F)(F)F)cc1 | 80 to 82
COC(=O)C1=C(C)NC(C)=C(C(=O)OC)C1CCCCC(=O)O | 150 to 151
O=C(c1ccccc1)N1CC2C(C1)C2Nc1ncc2cc(-c3ccccc3Cl)c(=O)n(-c3ccc(F)cc3)c2n1 (configuration not stated) | 242 to 244
CC(=O)OC1CSC(Oc2ccc(-c3cccs3)nc2)C(OC(C)=O)C1OC(C)=O (configuration not stated) | 172
CC1CC=NN1C(=O)c1cccnc1 (single isomer, unassigned; (-)) | 67 to 69
CC(C)CN(CC(C)C)C(=O)c1c([N+](=O)[O-])cccc1[N+](=O)[O-] | 97 to 99
CCOc1c(NCc2ccc(C#N)c(CC)c2)c(=O)c1=O | 239 to 242

The remaining lines, values ahead:

melting point [°C] | SMILES
167 to 168 | O=c1c(Cl)c(OCc2ccc(Cl)cc2)cnn1-c1ccc(Cl)cc1F
82 to 85 | CCCOC(=O)C1Oc2ccccc2Cc2ccccc2O1
108 to 110 | Cc1ccccc1C(C(=O)N[C@H]1CCN(CCc2ccc(F)cc2)C1)c1ccccc1C
235 | O=C(Oc1ccccc1)OC1c2ccccc2C(=O)N1c1ccc2ccc(Cl)nc2n1 (configuration not stated)
182 | CCOC(=O)C(=CC=C(O)C(=O)O)Sc1ccc2ccccc2c1
167 to 168 | Fc1ccc2c(c1)C(OCc1c(F)cccc1F)C(Cn1ccnc1)S2 (configuration not stated)
81.7 to 84.7 | O=C(OCc1ccccc1)c1cccc(OCc2ccccc2)c1[N+](=O)[O-]
170 to 173 | CCc1noc(C)c1-c1[nH]c2ccccc2c1C(C)=O
135 to 138 | BrCc1cccc2c(-c3ccccc3)c(Br)oc12
235 to 242 | Cc1cccc(=O)c(NC(=O)C2=C(O)c3ccccc3S(=O)(=O)N2C)c1
130 | CCOC(=O)C1=C(c2ccc(-n3nc(C)nc3C)cc2)NC(C)=C(C(=O)Nc2ccccn2)C1c1ccccc1Cl (configuration not stated)
155 to 156 | COc1ccc(S(=O)(=O)Nc2ccccc2NC(=S)c2ccc(F)cc2)cc1
214 to 216 | CN(C)C=C1CCN(Cc2ccc([N+](=O)[O-])cc2)c2ccsc2C1=O
295 to 297 | Cc1ccccc1-c1c(NC(=O)C=Cc2ccc(O)c(O)c2)c(=O)oc2cc3c(cc12)CCC3
115 | CC#CCOc1ccc(S(=O)(=O)C2(C(=O)NO)CCN(Cc3cccnc3)CC2)cc1
191 to 194 | Cc1ccc(S(=O)(=O)CNc2nc(C)cc(C)n2)cc1
263 to 265 | COc1cc2c(cc1S(=O)(=O)c1ccc(C)cc1)[C@@H](N1CCCC1=O)[C@H](O)C(C)(C)O2 (relative stereo)
156 | COc1ccc(Br)cc1-c1cc(-c2cccc(Br)c2)no1
208 to 209 | CC(C)(N)c1ccc(-c2nc(Nc3ccc(-n4cncn4)cc3)ncc2C#N)cc1
